Assay results published in PMC10298982, “Stability Characterization of the Novel Anti-Cancer HM-10/10 HDL-Mimetic Peptide” (International Journal of Molecular Sciences, 2023).
Like-named read-outs stand apart in the source and are kept apart here. Ends that are not written are not given here.

Key:
[1] = Stability in potassium phosphate buffers of pH 1.3, 5.5 and 7.4; format: physicochemical; settings: potassium phosphate buffer; for remaining at 1 h, 2 µM: read-out: % Remaining at 60 min
Protocol: The stability of HM-10/10 under varying pH conditions was determined by adding the compound to potassium phosphate buffers of pH 1.3 (acidic), 5.5 (slightly acidic), and 7.4 (physiological pH), with 7-Ethoxycoumarin used as a control article. Under acidic and slightly acidic conditions, the half-life of HM-10/10 could not be determined, as the percentage of HM-10/10 was higher at the end of the time course than at the beginning (Table 3, Figure 3). […] Samples were tested at 2 µM.
The instrument was equipped with an electrospray ionization source (600 °C) operated in the positive-ion mode.

[2] = Metabolic stability in cynomolgus monkey liver microsomes; format: in vitro ADME; settings: for CLint scaled: cynomolgus monkey, microsomes, Cynomolgus monkey liver microsomes 0.5 mg protein/mL, 2 μM
[3] = Metabolic stability in cryopreserved CD-1 mouse hepatocytes; format: in vitro ADME; settings: CD-1 mouse hepatocytes 0.5 million cells/mL; for CLint scaled: mouse, hepatocytes, 2 μM
[4] = Metabolic stability in cryopreserved cynomolgus monkey hepatocytes; format: in vitro ADME; settings: Cynomolgus monkey hepatocytes 0.5 million cells/mL
[5] = Metabolic stability in cryopreserved human hepatocytes; format: in vitro ADME; settings: Human hepatocytes 0.5 million cells/mL; for CLint scaled: hepatocytes
CYP2B6 = target: T1, CYP2B6 (Homo sapiens, UniProt P20813); settings: microsomes
T1 sequence (P20813 1-491): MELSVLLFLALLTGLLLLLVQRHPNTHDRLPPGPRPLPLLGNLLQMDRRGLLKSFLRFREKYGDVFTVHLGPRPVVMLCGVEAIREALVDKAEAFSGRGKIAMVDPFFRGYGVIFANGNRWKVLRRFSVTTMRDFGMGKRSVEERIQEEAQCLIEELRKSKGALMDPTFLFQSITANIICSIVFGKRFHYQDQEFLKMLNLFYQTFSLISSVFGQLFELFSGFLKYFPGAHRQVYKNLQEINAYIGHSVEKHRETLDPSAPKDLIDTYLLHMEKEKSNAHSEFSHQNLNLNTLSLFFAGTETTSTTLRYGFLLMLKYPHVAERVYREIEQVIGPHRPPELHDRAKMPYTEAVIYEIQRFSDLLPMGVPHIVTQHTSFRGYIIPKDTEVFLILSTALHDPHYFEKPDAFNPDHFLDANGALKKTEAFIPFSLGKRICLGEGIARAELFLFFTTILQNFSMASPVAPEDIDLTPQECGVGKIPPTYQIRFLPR

CYP2C8 = target: T2, CYP2C8 (Homo sapiens, UniProt P10632); settings: microsomes
T2 sequence (P10632 1-490): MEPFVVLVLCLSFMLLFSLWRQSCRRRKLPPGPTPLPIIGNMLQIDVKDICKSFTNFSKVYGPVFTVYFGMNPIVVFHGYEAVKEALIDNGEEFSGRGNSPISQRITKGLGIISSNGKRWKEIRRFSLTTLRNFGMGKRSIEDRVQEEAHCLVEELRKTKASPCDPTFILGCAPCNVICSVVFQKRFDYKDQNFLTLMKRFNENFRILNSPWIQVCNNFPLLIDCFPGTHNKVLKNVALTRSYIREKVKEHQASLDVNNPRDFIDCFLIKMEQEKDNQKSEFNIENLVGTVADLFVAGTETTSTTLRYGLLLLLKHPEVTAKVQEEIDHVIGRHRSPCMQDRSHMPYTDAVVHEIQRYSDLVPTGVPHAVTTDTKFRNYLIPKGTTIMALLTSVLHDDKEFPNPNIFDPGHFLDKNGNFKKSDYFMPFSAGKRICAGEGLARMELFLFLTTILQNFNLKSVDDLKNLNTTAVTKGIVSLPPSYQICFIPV

CYP2C9 = CYP2C9 (Homo sapiens, UniProt P11712); settings: microsomes
Sequence of CYP2C9 (P11712 whole entry): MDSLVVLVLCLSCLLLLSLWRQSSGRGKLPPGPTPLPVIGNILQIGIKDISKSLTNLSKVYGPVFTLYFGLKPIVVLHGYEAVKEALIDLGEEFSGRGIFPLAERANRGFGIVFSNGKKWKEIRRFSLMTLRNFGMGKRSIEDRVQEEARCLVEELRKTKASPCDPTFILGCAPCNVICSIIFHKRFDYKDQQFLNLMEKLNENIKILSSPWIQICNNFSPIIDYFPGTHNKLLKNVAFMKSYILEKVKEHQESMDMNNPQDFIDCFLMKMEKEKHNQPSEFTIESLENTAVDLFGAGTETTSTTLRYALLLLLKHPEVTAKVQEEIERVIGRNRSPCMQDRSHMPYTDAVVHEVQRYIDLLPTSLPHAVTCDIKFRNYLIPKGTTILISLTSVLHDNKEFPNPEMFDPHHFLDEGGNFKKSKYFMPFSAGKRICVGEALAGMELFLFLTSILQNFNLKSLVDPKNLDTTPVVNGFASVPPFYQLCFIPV

in vitro [6] = settings: human, plasma, pH 7.4
Protocol: Samples were tested at 2 μM.
(§1) The supernatant was removed and incubated at 37 °C for at least 10 min before use. The pH of each matrix was checked and adjusted to pH 7.4 using 10% phosphoric acid or 1 N sodium hydroxide as necessary.
(§2) Test and control article stock solutions were spiked (1.5 µL) into matrix (0.749 mL) to a final assay concentration of 2 µM and mixed. […] These tubes were sealed and incubated at 37 °C with shaking.
(§3) The quenched samples were mixed briefly by vortexing and stored in a −20 °C freezer.
(§4) Sample plates were stored refrigerated until analysis.
(§5) The column was set to a temperature of 55 °C. […] The instrument was equipped with an electrospray ionization source (500 °C) operated in positive-ion mode.
(§6) Peak area ratios for IS-normalized test article and control article counts were used to calculate the percent remaining relative to the time zero (T0) value. As appropriate, results were plotted and further analyzed to calculate half-life (T1/2) values.
(§7) Mean peak ratios were used to calculate the percent remaining relative to the T0 value: % Remaining at Timex = (mean peak area ratio Tx/mean peak ratio T0) × 100.

in vitro [7] = settings: Sprague-Dawley, rat, plasma, pH 7.4
Protocol: Samples were tested at 2 μM.
as §1, §2, §3, §4, §5, §6, §7

in vitro [8] = settings: cynomolgus monkey, plasma, pH 7.4
Protocol: Samples were tested at 2 μM.
as §1, §2, §3, §4, §5, §6, §7

in vitro [9] = settings: CD-1, mouse, plasma, pH 7.4
Protocol: Samples were tested at 2 μM.
as §1, §2, §3, §4, §5, §6, §7

[10] = Protein binding in cynomolgus monkey plasma (ultracentrifugation); settings: plasma (K2EDTA), pH 7.4
[11] = system: cynomolgus monkey plasma proteins; experiment: as above; settings: Cynomolgus monkey plasma (K2EDTA); 2 μM; 2.5 h at 37 °C
[12] = Protein binding in Sprague-Dawley rat plasma (ultracentrifugation); settings: Sprague-Dawley, rat, plasma (K2EDTA), pH 7.4
[13] = system: Sprague-Dawley rat plasma proteins; experiment: as above; settings: Sprague-Dawley rat plasma (K2EDTA), 2 μM
[14] = cryopreserved hepatocytes, read-out: % Remaining at 30 min

LRKLRKRLLRLVGRQLEEFL [HM-10/10, LRKLRKRLLRLVGRQLEEFL]
half-life at 2 µM ([1]; Acidic (pH 1.3)): > 120 min | remaining at 1 h, 2 µM ([1]; Acidic (pH 1.3)): 156% | half-life at 2 µM ([1]; Physiological pH (pH 7.4)): 433 min | remaining at 1 h, 2 µM ([1]; Physiological pH (pH 7.4)): 81.4% | half-life at 2 µM ([1]; Slightly Acidic (pH 5.5)): > 120 min | remaining at 1 h, 2 µM ([1]; Slightly Acidic (pH 5.5)): 136% | CLint scaled ([2]; read-out: CLint (L/hr/kg) (converted)): 5.15 L/h/kg | CLint scaled ([2]; read-out: CLint (mL/min/kg)): 5.15 L/h/kg | half-life at 2 µM ([2]; pooled liver microsomes, pH 7.4, Cynomolgus monkey liver microsomes 0.5 mg protein/mL): 21.8 min | remaining at 2 h, 2 µM ([2]; pooled liver microsomes, pH 7.4, Cynomolgus monkey liver microsomes 0.5 mg protein/mL, read-out: % Remaining at 120 min): 0.8% | half-life at 2 µM ([3]; cryopreserved hepatocytes): < 15 min | remaining at 0.5 h, 2 µM [3, 14]: 0.7% | CLint scaled ([3]; read-out: CLint (L/hr/kg)): > 65.5 L/h/kg | CLint scaled ([3]; read-out: CLint (mL/min/kg)): > 65.4 L/h/kg | CLint scaled ([4]; 2 μM): 465 mL/min/kg | half-life at 2 µM ([4]; cryopreserved hepatocytes): 12.1 min | remaining at 0.5 h, 2 µM [4, 14]: 18.5% | % Remaining at 30 min ([5]; 2 μM): 2.5% | half-life at 2 µM ([5]; cryopreserved hepatocytes): 5.28 min | remaining at 0.5 h, 2 µM ([5]; human, cryopreserved hepatocytes, read-out: % Remaining at 30 min): 2.47% | CLint scaled ([5]; human, 2 μM, read-out: CLint (L/hr/kg) (converted)): 42.5 L/h/kg | CLint scaled ([5]; human, 2 μM, read-out: CLint (mL/min/kg)): 42.5 L/h/kg | % Inhibition at 50 µM No PI + NADPH (CYP2B6): 17.3% | % Inhibition at 50 µM No PI − NADPH (CYP2B6): 25.2% | % Inhibition at 50 µM PI + NADPH (CYP2B6): 28.4% | % Inhibition at 50 µM PI − NADPH (CYP2B6): 42.2% | % Inhibition at 50 µM No PI + NADPH (CYP2C8): 18.7% | % Inhibition at 50 µM No PI − NADPH (CYP2C8): 14.0% | % Inhibition at 50 µM PI + NADPH (CYP2C8): 9.0% | % Inhibition at 50 µM PI − NADPH (CYP2C8): 11.4% | % Inhibition at 50 µM No PI + NADPH (CYP2C9): 8.6% | % Inhibition at 50 µM No PI − NADPH (CYP2C9): 0.4% | % Inhibition at 50 µM PI + NADPH (CYP2C9): 1.7% | % Inhibition at 50 µM PI − NADPH (CYP2C9): 0.5% | half-life at 2 µM (in vitro [6]): 164 min | remaining at 2 h, 2 µM (in vitro [6]): 64.5% | half-life at 2 µM (in vitro [7]): 82.5 min | remaining at 2 h, 2 µM (in vitro [7]): 36.3% | half-life at 2 µM (in vitro [8]): 52.7 min | remaining at 2 h, 2 µM (in vitro [8]): 21.9% | half-life at 2 µM (in vitro [9]): 5.68 min | remaining at 2 h, 2 µM (in vitro [9]): 23.9% | fraction unbound at 2.5 h, 2 µM ([10]; cynomolgus monkey): 0.736 ± 0.216 | remaining at 2.5 h, 2 µM ([10]; monkey): 25.9% | % Protein Bound Mean ± SD [11]: 26.4 ± 21.6% | % Protein Free Mean ± SD [11]: 73.6 ± 21.6% | fraction unbound at 2.5 h, 2 µM [12]: 0.672 ± 0.094 | % Stability in Matrix (2.5 h) ([13]; 37 °C): 36.6% | % Protein Bound Mean ± SD ([13]; 2.5 h at 37 °C): 32.8 ± 9.4% | % Protein Free Mean ± SD ([13]; 2.5 h at 37 °C): 67.2 ± 9.4%
